Laboratory results published in ChEMBL document CHEMBL3526156, “Bioactivation of the cancer chemopreventive agent tamoxifen to quinone methides by cytochrome P4502B6 and identification of the modified residue on the apoprotein” (Drug Metab Dispos, 2012).
Each block holds one compound with its values, some of them ahead of it.

Legend:
Type in all cases: ADME
Cytochrome P450 2B6 [1] = target: T1, Cytochrome P450 2B6 (Homo sapiens, UniProt P20813); experiment: Activity at CYP2B6 (unknown origin) expressed Escherichia coli C41 DE3 cells assessed as enzyme-mediated 4-hydroxytamoxifen quinone methide metabolite formation by measuring reactive metabolite adduct with GSHEE at 90 uM by LC-MS/MS analysis
T1 sequence (P20813 whole entry): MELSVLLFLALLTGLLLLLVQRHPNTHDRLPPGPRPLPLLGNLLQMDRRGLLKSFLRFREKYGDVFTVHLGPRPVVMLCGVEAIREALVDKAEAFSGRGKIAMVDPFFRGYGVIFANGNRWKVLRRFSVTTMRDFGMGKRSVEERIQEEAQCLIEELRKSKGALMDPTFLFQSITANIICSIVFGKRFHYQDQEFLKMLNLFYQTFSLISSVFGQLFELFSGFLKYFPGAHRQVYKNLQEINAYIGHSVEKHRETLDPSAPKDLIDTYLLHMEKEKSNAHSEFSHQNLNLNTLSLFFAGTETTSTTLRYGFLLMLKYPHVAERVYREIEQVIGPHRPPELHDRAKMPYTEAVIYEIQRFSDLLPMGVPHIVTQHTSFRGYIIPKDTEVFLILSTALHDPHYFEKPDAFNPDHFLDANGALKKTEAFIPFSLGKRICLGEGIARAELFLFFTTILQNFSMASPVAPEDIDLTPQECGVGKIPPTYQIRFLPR

Cytochrome P450 2B6 [2] = target: T1, Cytochrome P450 2B6; experiment: Activity at CYP2B6 (unknown origin) expressed Escherichia coli C41 DE3 cells assessed as compound formation by measuring retention time treated with tamoxifen at 60 uM by LC-MS/MS analysis
[3] = Drug metabolism in human liver microsomes assessed as compound formation by measuring retention time at 90 uM by LC-MS/MS analysis
Cytochrome P450 2B6 [4] = target: T1, Cytochrome P450 2B6; experiment: Activity at CYP2B6 (unknown origin) expressed Escherichia coli C41 DE3 cells assessed as compound formation by measuring retention time treated with 4-hydroxytamoxifen at 90 uM by LC-MS/MS analysis
Cytochrome P450 2B6 [5] = target: T1, Cytochrome P450 2B6; experiment: Inactivation of CYP2B6 (unknown origin) expressed in Escherichia coli C41 DE3 cells assessed as modified apo-P450 2B6 adduct formation at 60 uM by ESI-LC-MS analysis in presence of NADPH and GSHEE
Cytochrome P450 2B6 [6] = target: T1, Cytochrome P450 2B6; experiment: Inactivation of CYP2B6 (unknown origin) expressed in Escherichia coli C41 DE3 cells assessed as modified apo-P450 2B6 adduct formation at 60 uM after 10 mins by ESI-LC-MS analysis in presence of NADPH

Structure (SMILES): CCC(=C(c1ccc(O)cc1)c1ccc(OCCN(C)C)cc1)c1ccccc1
Retention time (Cytochrome P450 2B6 [1]): 16.9 min

Retention_time (Cytochrome P450 2B6 [2]): 18.3 min | Retention_time [3]: 16.6 min | Retention_time (Cytochrome P450 2B6 [4]): 16.9 min
Structure (SMILES): C/C=C(/C(=C1C=CC(=O)C=C1)c1ccc(OCCN(C)C)cc1)c1ccccc1

Activity (Cytochrome P450 2B6 [5]): Active | Activity (Cytochrome P450 2B6 [6]): Active
Structure (SMILES): CC/C(=C(\c1ccccc1)c1ccc(OCCN(C)C)cc1)c1ccccc1 [TAMOXIFEN]
